# From a melting point compilation (Tetko et al.; mined from patent text by program, amines drawn as free bases though some values may be those of a salt)
row,melting point,SMILES
1,146 to 148 °C,COc1c(Cc2ccccc2)cc(C(=O)O)c2ccccc12
2,118 to 120 °C,O=C(Oc1ccccc1)c1ccc(Oc2ccc([N+](=O)[O-])cc2)cc1O
3,110 to 112 °C,Nc1ccc(CCCc2ccc(Nc3ccccc3C(=O)O)cc2)cc1
4,228 to 229 °C,Cn1c(C#N)ccc1-c1ccc2c(c1)C(C)(C)OC(=S)N2
5,71.5 to 72.5 °C,CC(=O)Cc1ccc(-n2ccnc2)cc1
6,214 to 217 °C,Cc1c(C=C2CCc3cc4ccccc4n3C2=O)ncn1C(c1ccccc1)(c1ccccc1)c1ccccc1
7,152 to 155 °C,COc1ccc(S(=O)(=O)Nc2ncccc2/C=C/c2ccccc2)cc1
8,64 to 68 °C,COc1cc(OC)c(N2CCCC2)cc1/C=C/C(=O)c1ccc(S(=O)(=O)NCCCN2CCN(C)CC2)cc1
9,42 to 45 °C,CC(C=O)=CC=CC(C)=CCO
10,> 250 °C,Cn1ccnc1Sc1ccc2[nH]nc(Nc3nccs3)c2c1
11,112 to 114 °C,CCSc1cnc(Cl)cc1C#N
12,232 to 234 °C,Cc1c(NC(=O)c2ccc(-c3ccc(F)cc3)cc2)ccc2cc(CN3CCC(CCCC(N)=O)CC3)cnc12
13,119 to 121 °C,CC(=O)Nc1ccc(C(=O)NC(C)(C)C)cc1
14,58 to 60 °C,COCCOC(=O)C1CCCCC1C(=O)Nc1cc(OC(C)C)c(Cl)cc1F (configuration not stated)
15,221 to 223 °C,Cc1nc2c(c3c1[nH]c1ccc(F)cc13)C(=O)CC(C(C)C)C2 (configuration not stated)
16,194 to 196 °C,COc1ccc(C(CC(C)=O)N2C(=O)c3cccc(N(S(C)(=O)=O)S(C)(=O)=O)c3C2=O)cc1OC (configuration not stated)
17,262 to 265 °C,O=c1cc(Oc2cccc(OCc3ccccc3)c2)c2ccccc2[nH]1
18,70 to 71 °C,CC(C)(C)OC(=O)C1C(C#CC(=O)OCC(Cl)(Cl)Cl)C1(C)C (configuration not stated)
19,149 to 153 °C,CCCc1ccc(C(=O)O)c(C(=O)O)n1
20,66 to 68 °C,Cc1cc(F)ccc1-c1cnccn1
21,161 to 163 °C,COCC(=O)Nc1cccc(C2(C3CCN(C(=O)c4ccc(C(=O)OC)cc4)CC3)N=C(N)N(C)C2=O)c1 (configuration not stated)
22,159 to 162 °C,Clc1ccc2c(NCCCCCCCCCNc3ncnc4cc(Cl)ccc34)ncnc2c1
23,120 to 121 °C,COCC(=O)Nc1c(C(O)(C(F)(F)F)C(F)(F)F)ccc2ccccc12
24,138 °C,O=C(Nc1ccc2c(c1)OCO2)O[C@@H]1CN=C(c2ccccc2)O[C@H]1c1ccccc1 (racemic)
25,170 to 171 °C,NC(=O)c1cc(-c2ccc(F)cc2)sc1N

row,melting point,SMILES
1,233 to 234 °C,Cc1cc(-c2ccc(C(F)(F)F)nc2)cc(-c2cccc(-c3cccc(S(N)(=O)=O)c3)n2)n1
2,261 °C,NC(=O)c1cnc2cc(F)c(F)cc2c1
3,198 to 200 °C,C=C(c1cc(Cl)ccc1N1CCCCC1)C(C(N)=O)c1ccc(C(=O)O)cc1 (configuration not stated)
4,284 °C,Cn1cc(-c2cc(-c3cnc4c(c3)CCC(=O)N4)ccn2)n(-c2ccc(C(C)(C)C#N)cc2)c1=O
5,85 to 90 °C,Cc1ccc(Cl)c(C(=O)c2ccc(Cl)cc2)c1
6,250 to 251 °C,CCc1n[nH]c2c1nc(-c1ccccc1)c1ccccc12
7,129 °C,CN(CCCN1CCC(=C2c3ccccc3C=Cc3ccccc32)CC1)c1ncccn1
8,205 to 207 °C,Cc1csc2ccc(C(O)=S)cc12
9,148 °C,O=C1C/C(=C\c2ccccc2[N+](=O)[O-])C(=O)N1
10,133 to 136 °C,Nc1c(F)c(F)cc(C(=O)O)c1F
11,155 to 156 °C,CNc1nc(C)c(-c2ccncc2)s1
12,198 to 200 °C,Cc1ccc(S(=O)(=O)NC(CC(N)=O)C(=O)O)cc1 (configuration not stated)
13,92 to 93 °C,CCOc1cccc(CC(=O)O)c1OCCCc1cn(-c2ccc(Cl)cn2)nc1C(CC)CC
14,172 °C,CNC(=O)N(CCN1CCC(Nc2nc3ccccc3n2Cc2ccc(F)cc2)CC1)c1nccs1
15,160 °C,CC(=O)Nc1ccc(OCCOc2ncc(Cl)cn2)cc1
16,218 °C,COC(=O)C1=C(N)NC(C)=C([N+](=O)[O-])C1c1ccccc1S(=O)(=O)CCCCCl (configuration not stated)
17,99 to 100 °C,CN1CC[C@H](c2ccc(Cl)cc2)[C@@H](O)C1 (racemic)
18,108 to 109 °C,COc1ccccc1CCc1c(CO)ccc(OC)c1OC
19,147 to 149 °C,CCC(C)(C)NC(=S)Nc1cc(Br)cc(Br)c1
20,176 to 178 °C,CN(C)C(=O)CC1(C)OCCc2c1[nH]c1c3c(ccc21)CCCC3 (configuration not stated)
21,193 to 196 °C,NC(=O)N1CCN(CC(O)COc2ccc(Cl)cc2)CC1 (configuration not stated)
22,> 300 °C,Cc1nc(-n2ccc(N3CCNC3=O)cc2=O)sc1C(=O)NCc1ccccc1
23,247 to 248 °C,CNC(=O)c1c(I)c(NC(=O)COC)c(I)c(C(=O)NC(CO)C(=O)O)c1I (racemic)
24,149 to 150 °C,O=C(O)CCCCCCn1c(-c2ccccc2)nc(-c2ccccc2)c1-c1ccccc1
25,175 to 177 °C,COc1ccc(NS(=O)(=O)c2cc3cc(Cl)ccc3oc2=O)cc1

# Second part, the compound before the results:
row,SMILES,melting point
1,O=C1C2=C(CCCC2)C(=O)C1=C1C=CNC=C1,258 to 261 °C
2,Cc1ccc(C(=O)NCCO)c(Nc2ccc3cn[nH]c3c2)n1,217 to 220 °C
3,CC12CC(=O)C3C(CCC4CC5OC5CC43C)C1CCC2=O (configuration not stated),166 to 167 °C
4,NC(=O)Cc1ccc2c(c1)C(=O)c1ccccc1CO2,157 to 158 °C
5,CC1CC(c2c(S(C)(=O)=O)ccc(C(=O)c3cnn(C)c3O)c2Cl)=NO1 (configuration not stated),230 to 235 °C
6,CSc1ccc(-c2coc3ccc(-c4nnc(O)o4)cc23)cc1,211 to 212 °C
7,CCC(=O)OCOC(=O)Oc1ccc([N+](=O)[O-])cc1,35 to 36 °C
8,Cc1oc(-c2ccccc2)nc1COc1cccc(C=O)c1,67 to 68 °C
9,CCn1c2cc(C(F)(F)F)ccc2c2oc(C(=O)Cl)cc21,124 to 126 °C
10,O=c1[nH]c2cccc(OCCNCc3ccccc3)c2[nH]1,132 to 135 °C
11,CCCCCOc1ccc(C=O)cc1O,55 to 56 °C
12,COc1cc(Nc2nccc(-c3cccc(NCCCO)c3)n2)cc(OC)c1OC,92 to 95 °C
13,Cc1ccc(S(=O)(=O)Nc2ccc3nc(N4CCN(C)CC4)c(N4CCN(C)CC4)nc3c2)cc1,234 to 237 °C
14,CC(C)(C)c1ccc(-c2ccc(C(CCC(=O)O)=NO)cc2)cc1,170 to 172 °C
15,O=c1[nH]c(=O)n(Cc2cccc(OCc3noc(-c4ccc(Cl)cc4)n3)c2)o1,159 to 160 °C
16,CCOC(=O)C(=O)Nc1ccc(Cl)cc1[N+](=O)[O-],156 to 157 °C
17,O=[N+]([O-])c1cccc(-n2cnnc2C(F)(F)F)c1,142 °C
18,CCCCCCCN(CC1(c2ccccc2)CCCC1)C(=O)Nc1c(C(C)C)cccc1C(C)C,95 to 97 °C
19,CS(=O)(=O)c1cc(C(=O)NC(=N)N)c(NCc2ccco2)cc1Cl,96 to 102 °C
20,CSc1nc(Oc2ccccc2)c(C(=O)O)c(Oc2ccccc2)n1,97 to 98 °C
21,OCCC#Cc1ccc2ccccc2n1,89 to 91 °C
22,CC(C)(O)CCOc1c(-c2ccc(S(C)(=O)=O)cc2)cnn(-c2ccc(F)c(F)c2)c1=O,131 to 133 °C
23,"C=CCN1CCc2cc(OC)c(O)c3c2C1Cc1cc(OC)c(OC)cc1-3 (single isomer, unassigned; (+))",85 to 93 °C
24,C=CC(=O)OCCCCCCOc1ccc(C=O)cc1,30 °C
25,Cc1cc(C)cc(COC(=O)C(Cc2c[nH]c3ccccc23)NS(C)(=O)=O)c1 (configuration not stated),96 to 97 °C
26,CC(C)n1c(=S)nc(-c2ccccc2)c2cc3c(cc21)OCO3,202 to 205 °C

row,SMILES,melting point
1,COc1ccc(C(=O)Nc2nc(C(Cl)(Cl)Cl)ns2)cc1,172 °C
2,CCCCN(C(=O)N[C@@H](CC(=O)O)c1ccc2c(c1)OCO2)C1CC(=O)N(Cc2ccccc2)C1=O (some centres not stated),80 to 85 °C
3,CCOc1ccc2[nH]c(S(=O)Cc3cccn4ccnc34)nc2c1 (configuration not stated),186 to 188 °C
4,Cc1ccc(C(=O)c2cc([N+](=O)[O-])ccc2Cl)cc1,121 °C
5,N#Cc1c[nH]cc1-c1ccc(Cl)cc1C(=O)c1ccccc1,175 to 177 °C
6,CC(=O)c1ccc(Br)cn1,112 °C
7,COc1cc(C=O)cc(I)c1OCc1ccccc1,53 to 54 °C
8,CCOC(=O)c1cn(C2CC2)c2c(F)c(-c3cc(C)nc(C)c3)c(F)cc2c1=S,194 to 195 °C
9,CNC(=O)c1ccc(N2CCN(Cc3cc4c(c(OC)c3)OC(C)C(=O)N4)CC2)c(Cl)c1 (configuration not stated),200 to 203 °C
10,CCOC(=O)NC(=O)CC(=O)NC(=O)OCC,177 to 178 °C
11,CCCCCCC1=NOC(=O)/C1=C\Nc1ccc(CCCCCC)cc1,88 to 90 °C
12,COCCOCc1ccc(C#CC2(O)CN3CCC2CC3)c(F)c1 (configuration not stated),117 to 118 °C
13,Brc1cncc(OCc2ccccc2)c1,65 to 67 °C
14,COC[C@H]1C[C@H]1c1ccccc1 (relative stereo),46 to 50 °C
15,CCc1ccc(-c2nc(-c3ccccc3Cl)nn2C)c(Cl)c1,75.5 to 77.5 °C
16,O=S1(=O)NC(C2CCCC2)Nc2ccc(S(=O)(=O)N3CCCCC3)cc21 (configuration not stated),258 to 260 °C
17,O=C(O)Cc1cccc(-c2ccccc2OC2OC(CO)C(O)C(O)C2O)c1 (configuration not stated),85 to 86 °C
18,Fc1cc(Cl)cc2cc(-c3ccccc3)[nH]c12,153 to 155 °C
19,C=CCN1CCN(c2cc3c(cc2F)c(=O)c(C(=O)O)cn3CC)CC1,236 °C
20,CCOC(=O)CCc1cc(Cl)ccc1C(=O)CCCNC(N)=O,127 to 129 °C
21,Cc1ccc(N(C)S(=O)(=O)c2cccs2)c2[nH]c(C(=O)O)cc12,223 to 225 °C
22,CCNc1nc(-c2ccccc2)c(-c2ccc(=O)n(C(C)C)n2)s1,167 to 169 °C
23,O=c1[nH]c(=O)n(C2CC(OCc3ccccc3)C(COCc3ccccc3)C2O)cc1I (configuration not stated),165 °C
24,CCOCc1nc2c(N)nc3cc(OCCCN4CCCC4=O)ccc3c2n1CCCCN1CCCS1(=O)=O,142 to 144 °C
25,COc1cc(O)c2c(=O)c(OC(C)C)c(-c3ccc(O)c(OC)c3)oc2c1,169 to 171 °C
26,CC(C)(C)OC(=O)N1CCCC[C@@H]1[C@H](CO)c1ccc(Br)cc1,117 to 118 °C
